Source: PubChem BioAssay (NCI)
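Five compound concentrations were applied to cells in 96-well plates for 48 hours; endpoints were derived by simple linear interpolation of the resulting dose-response curve. TGI marks complete inhibition of growth.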

Columns and labels:
Test in all cases: NCI-60 cell line screen, 48 h
[1] = system: UO-31 renal
[2] = system: SK-OV-3 ovarian
[3] = system: MALME-3M melanoma
[4] = system: MDA-MB-231 breast
[5] = system: UACC-62 melanoma
[6] = system: EKVX NSCLC
[7] = system: SF-268 CNS
[8] = system: HOP-62 NSCLC
[9] = system: A498 renal
[10] = system: LOX IMVI melanoma
[11] = system: HL-60(TB) leukemia
[12] = system: NCI-H226 lung
[13] = system: OVCAR-4 ovarian
[14] = system: U251 CNS
[15] = system: MDA-N
[16] = system: TK-10 renal
[17] = system: IGROV1 ovarian
[18] = system: DU-145 prostate
[19] = system: M14 melanoma
[20] = system: HS 578T breast
[21] = system: HT29 colon
[22] = system: NCI/ADR-RES ovarian
[23] = system: NCI-H23 lung
[24] = system: SW-620 colon
[25] = system: ACHN renal
[26] = system: 786-0 renal
[27] = system: HCT-15 colon
[28] = system: MCF7 breast
[29] = system: T-47D breast
[30] = system: OVCAR-8 ovarian
[31] = system: HCC-2998 colon
[32] = system: NCI-H460 lung
[33] = system: SN12C renal
[34] = system: PC-3 prostate
[35] = system: SF-295 CNS
[36] = system: KM12 colon
[37] = system: NCI-H522 lung
[38] = system: HCT-116 colon
[39] = system: COLO 205 colon
[40] = system: UACC-257 melanoma
[41] = system: SK-MEL-5 melanoma
[42] = system: SR leukemia
[43] = system: BT-549 breast
[44] = system: HOP-92 NSCLC
[45] = system: RXF 393 renal
[46] = system: SK-MEL-28 melanoma
[47] = system: MOLT-4 leukemia
[48] = system: SK-MEL-2 melanoma
[49] = system: MDA-MB-435
[50] = system: A549 NSCLC
[51] = system: OVCAR-5 ovarian
[52] = system: CAKI-1 renal
[53] = system: CCRF-CEM leukemia
[54] = system: SNB-19 CNS
[55] = system: SNB-75 CNS
[56] = system: SF-539 CNS
[57] = system: OVCAR-3 ovarian

N#Cc1c(C#N)c(SSc2c(C#N)c(C#N)c(N)n2-c2ccc(F)cc2)n(-c2ccc(F)cc2)c1N
TGI [1]: 3.87 µM
TGI [2]: 31.4 µM
TGI [3]: 3.28 µM
TGI [4]: 37.6 µM
TGI [5]: 31.7 µM
TGI [6]: 5.13 µM
TGI [7]: 48.2 µM
TGI [8]: 33.2 µM
TGI [9]: 18.9 µM
TGI [10]: 59.9 µM
TGI [11]: 4.44 µM
TGI [12]: 46 µM
TGI [13]: > 100 µM
TGI [14]: 40.1 µM
TGI [15]: 10.8 µM
TGI [16]: 8.27 µM
TGI [17]: 37.9 µM
TGI [18]: 30.6 µM
TGI [19]: 9.07 µM
TGI [20]: > 58.3 µM
TGI [21]: 36.5 µM
TGI [22]: 59.4 µM
TGI [23]: 14.3 µM
TGI [24]: 5.59 µM
TGI [25]: 8.55 µM
TGI [26]: 3.22 µM
TGI [27]: 4.25 µM
TGI [28]: > 24.8 µM
TGI [29]: 7.96 µM
TGI [30]: 32.4 µM
TGI [31]: 45.3 µM
TGI [32]: 41.2 µM
TGI [33]: 31.5 µM
TGI [34]: 33.3 µM
TGI [35]: 31.8 µM
TGI [36]: 44.3 µM
TGI [37]: 4.11 µM
TGI [38]: 3.38 µM
TGI [39]: 3.76 µM
TGI [40]: 32.5 µM
TGI [41]: 31.1 µM
TGI [42]: 1.98 µM
TGI [43]: 7.2 µM
TGI [44]: 7.82 µM
TGI [45]: 8.48 µM
TGI [46]: 19.9 µM
TGI [47]: 2.99 µM
TGI [48]: 44 µM
TGI [49]: 19.2 µM
TGI [50]: 36.7 µM
TGI [51]: 30.9 µM
TGI [52]: 21.1 µM
TGI [53]: 4.62 µM
TGI [54]: 42.6 µM
TGI [55]: 32.6 µM
TGI [56]: 35.6 µM
TGI [57]: 6.92 µM
